Kd and IC50 data for 25 compounds are collected here from ChEMBL document CHEMBL1139385, “Structural analysis of ARC-type inhibitor (ARC-1034) binding to protein kinase A catalytic subunit and rational design of bisubstrate analogue inhibitors of basophilic protein kinases” (J Med Chem, 2009).

SMILES strings stand for the structures.

Assay [1] concerns the target T1, cAMP-dependent protein kinase catalytic subunit alpha (Homo sapiens, UniProt P17612). In words: Binding affinity to PKA catalytic subunit alpha by fluorescence polarization assay. (In fluorescence polarisation assays a small probe gives low polarisation when free and higher when bound to something large.)
Assay [2] addresses Rho-associated protein kinase 2 (Bos taurus) (UniProt Q28021). In words: Binding affinity to ROCK2 by fluorescence polarization assay.
The target of assay [3] is T1, cAMP-dependent protein kinase catalytic subunit alpha. In words: Inhibition of PKA catalytic subunit alpha using 100 uM ATP and 30 uM TAMRA-kemptide substrate by fluorometric TLC assay.
Assay [4] addresses RAC-gamma serine/threonine-protein kinase (Homo sapiens, UniProt Q9Y243). In words: Inhibition of PKBgamma using 100 uM ATP and 30 uM TAMRA-kemptide substrate by fluorometric TLC assay.

Chain of RAC-gamma serine/threonine-protein kinase (Q9Y243 whole entry): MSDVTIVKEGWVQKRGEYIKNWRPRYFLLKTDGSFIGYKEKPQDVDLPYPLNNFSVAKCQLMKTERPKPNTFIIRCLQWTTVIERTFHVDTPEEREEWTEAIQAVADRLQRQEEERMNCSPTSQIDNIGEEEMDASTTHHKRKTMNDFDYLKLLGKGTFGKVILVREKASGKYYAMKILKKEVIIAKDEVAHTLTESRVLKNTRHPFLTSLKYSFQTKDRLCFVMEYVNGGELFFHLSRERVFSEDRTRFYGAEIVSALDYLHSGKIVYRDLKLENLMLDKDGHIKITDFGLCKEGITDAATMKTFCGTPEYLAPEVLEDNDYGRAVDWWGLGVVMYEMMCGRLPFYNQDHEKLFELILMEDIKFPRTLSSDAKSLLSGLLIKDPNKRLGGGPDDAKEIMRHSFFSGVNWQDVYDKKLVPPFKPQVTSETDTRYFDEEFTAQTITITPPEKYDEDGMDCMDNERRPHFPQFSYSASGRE
Chain of Rho-associated protein kinase 2 (Bos taurus) (Q28021 whole entry, looked up): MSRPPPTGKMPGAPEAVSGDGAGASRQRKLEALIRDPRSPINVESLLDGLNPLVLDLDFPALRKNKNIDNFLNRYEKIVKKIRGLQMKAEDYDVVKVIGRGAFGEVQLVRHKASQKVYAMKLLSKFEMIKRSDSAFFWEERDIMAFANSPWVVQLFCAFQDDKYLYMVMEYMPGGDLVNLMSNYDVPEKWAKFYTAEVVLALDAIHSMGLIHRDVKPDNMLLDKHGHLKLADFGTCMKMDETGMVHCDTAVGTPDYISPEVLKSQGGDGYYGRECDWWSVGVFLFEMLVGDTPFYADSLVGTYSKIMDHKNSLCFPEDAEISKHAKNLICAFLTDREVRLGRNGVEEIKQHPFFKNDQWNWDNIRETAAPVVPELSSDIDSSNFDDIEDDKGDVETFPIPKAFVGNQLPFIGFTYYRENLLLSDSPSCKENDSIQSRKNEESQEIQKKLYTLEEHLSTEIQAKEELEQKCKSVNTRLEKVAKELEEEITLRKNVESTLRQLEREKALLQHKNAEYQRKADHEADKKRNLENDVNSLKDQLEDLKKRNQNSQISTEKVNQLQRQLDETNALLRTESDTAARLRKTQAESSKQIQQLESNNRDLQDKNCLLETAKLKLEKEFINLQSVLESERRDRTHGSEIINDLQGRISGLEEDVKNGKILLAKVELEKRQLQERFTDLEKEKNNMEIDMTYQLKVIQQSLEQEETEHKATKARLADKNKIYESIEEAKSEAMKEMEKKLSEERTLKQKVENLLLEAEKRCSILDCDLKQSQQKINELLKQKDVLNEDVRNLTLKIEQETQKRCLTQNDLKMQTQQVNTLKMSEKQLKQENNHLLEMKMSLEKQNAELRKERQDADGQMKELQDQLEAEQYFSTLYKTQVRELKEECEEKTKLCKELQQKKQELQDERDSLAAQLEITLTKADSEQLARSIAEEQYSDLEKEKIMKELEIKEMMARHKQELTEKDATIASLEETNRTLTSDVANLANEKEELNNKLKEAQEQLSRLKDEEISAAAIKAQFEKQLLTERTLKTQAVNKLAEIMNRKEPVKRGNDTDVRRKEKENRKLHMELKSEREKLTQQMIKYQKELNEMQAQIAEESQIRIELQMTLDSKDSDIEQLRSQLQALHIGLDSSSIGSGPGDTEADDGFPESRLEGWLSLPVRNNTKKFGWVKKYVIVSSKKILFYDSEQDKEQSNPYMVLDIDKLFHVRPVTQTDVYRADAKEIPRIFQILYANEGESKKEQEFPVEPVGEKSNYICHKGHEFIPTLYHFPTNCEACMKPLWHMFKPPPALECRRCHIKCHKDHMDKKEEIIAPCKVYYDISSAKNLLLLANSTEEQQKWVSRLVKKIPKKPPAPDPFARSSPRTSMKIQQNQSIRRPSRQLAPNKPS

`NCCCC[C@H](NC(=O)CCCCCNC(=O)[C@H]1O[C@@H](n2cnc3c(N)ncnc32)[C@H](O)[C@@H]1O)C(=O)NCCCCCC(=O)N[C@H](CCCN=C(N)N)C(=O)N[C@H](CCCN=C(N)N)C(N)=O` came in with a Kd in assay [1] of 0.594 µM.
`NCCCNC(=O)CCCCCNC(=O)[C@H]1O[C@@H](n2cnc3c(N)ncnc32)[C@H](O)[C@@H]1O` displayed a Kd in assay [1] of 6.05 µM.
As to `NC(=O)[C@@H](CCCN=C(N)N)NC(=O)CCCCCNC(=O)[C@H]1O[C@@H](n2cnc3c(N)ncnc32)[C@H](O)[C@@H]1O`, the dissociation constant Kd in assay [2] amounted to 0.0897 µM; in assay [1], 0.249 µM. Besides, the values for the IC50 in assay [3] and in assay [4] were 2.1 µM and 1.61 µM, respectively.
As for `N=C(N)NCCC[C@@H](NC(=O)[C@@H](CCCNC(=N)N)NC(=O)CCCNC(=O)CCCCCNC(=O)[C@H]1O[C@@H](n2cnc3c(N)ncnc32)[C@H](O)[C@@H]1O)C(N)=O`, the equilibrium dissociation constant (Kd) in assay [1] was found to be 0.247 µM.
`Nc1ncnc2c1ncn2[C@@H]1O[C@H](C(=O)NCCCCCC(=O)NCc2ccccc2)[C@@H](O)[C@H]1O`: in assay [1], the Kd is 13.5 µM.
The compound `Nc1ncnc2c1ncn2[C@@H]1O[C@H](C(=O)NCCCCCC(=O)O)[C@@H](O)[C@H]1O` yielded a Kd in assay [1] of 55.8 µM.
As to `NC(=O)[C@@H](CCCN=C(N)N)NC(=O)[C@@H](CCCN=C(N)N)NC(=O)CCCCCNC(=O)CCCCCNC(=O)[C@H]1O[C@@H](n2cnc3c(N)ncnc32)[C@H](O)[C@@H]1O`, the Kd in assay [1] worked out at 0.083 µM.
As to `NC(=O)[C@H](Cc1ccc(C(=O)c2ccccc2)cc1)NC(=O)CCCCCNC(=O)[C@H]1O[C@@H](n2cnc3c(N)ncnc32)[C@H](O)[C@@H]1O`, the Kd in assay [1] was over 100 µM.
Regarding `C[C@@H](NC(=O)CCCCCNC(=O)[C@@H]1C[C@@H](O)[C@H](n2cnc3c(N)ncnc32)C1)C(=O)NCCCCCC(=O)N[C@H](CCCNC(=N)N)C(=O)N[C@H](CCCNC(=N)N)C(N)=O`, the dissociation constant Kd in assay [2] stood at 0.187 µM; in assay [1], 0.0018 µM. Also, the IC50 in assay [3] came to 0.0211 µM; in assay [4], 2.04 µM.
`C[C@@H](NC(=O)CCCCCNC(=O)[C@H]1O[C@@H](n2cnc3c(N)ncnc32)[C@H](O)[C@@H]1O)C(=O)NCCCCCC(=O)N[C@H](CCCN=C(N)N)C(=O)N[C@H](CCCN=C(N)N)C(N)=O`: the Kd in assay [2] came to 0.119 µM; in assay [1], 0.0058 µM. Besides, the values for the IC50 in assay [3] and in assay [4] were 0.097 µM and 3.75 µM, respectively.
`NCCCCNC(=O)CCCCCNC(=O)[C@H]1O[C@@H](n2cnc3c(N)ncnc32)[C@H](O)[C@@H]1O` gave an equilibrium dissociation constant (Kd) in assay [1] of 1.64 µM.
`NC(=O)CCCCCNC(=O)OC[C@H]1O[C@@H](n2cnc3c(N)ncnc32)[C@H](O)[C@@H]1O` gave a Kd in assay [1] of 52.1 µM.
As to `NCCCC[C@@H](NC(=O)CCCCCNC(=O)[C@H]1O[C@@H](n2cnc3c(N)ncnc32)[C@H](O)[C@@H]1O)C(N)=O`, the affinity in assay [1], expressed as Kd, was 0.443 µM.
`NC(=O)[C@@H](CCCN=C(N)N)NC(=O)[C@@H](CCCN=C(N)N)NC(=O)CCCCCCCNC(=O)CCCCCNC(=O)[C@H]1O[C@@H](n2cnc3c(N)ncnc32)[C@H](O)[C@@H]1O`: the Kd in assay [1] was determined as 0.0954 µM.
For the compound `Nc1ncnc2c1ncn2[C@@H]1O[C@H](C(=O)NCCCCCC(=O)NCCO)[C@@H](O)[C@H]1O`, in assay [1], the Kd was found to be 18.7 µM.
Consider `NCCCC[C@@H](NC(=O)CCCCCNC(=O)[C@H]1O[C@@H](n2cnc3c(N)ncnc32)[C@H](O)[C@@H]1O)C(=O)NCCCCCC(=O)N[C@H](CCCN=C(N)N)C(=O)N[C@H](CCCN=C(N)N)C(N)=O`, for which the results for the dissociation constant Kd in assay [2] and in assay [1] were 0.0014 µM and 0.0076 µM, respectively. Further, the 50% inhibitory concentration (IC50) in assay [3] came out at 0.054 µM; in assay [4] it was 0.774 µM.
Consider `NC(=O)[C@@H](Cc1ccc(C(=O)c2ccccc2)cc1)NC(=O)CCCCCNC(=O)[C@H]1O[C@@H](n2cnc3c(N)ncnc32)[C@H](O)[C@@H]1O`, for which the Kd in assay [1] came out at 1.96 µM.
Compound `NCCNC(=O)CCCCCNC(=O)[C@H]1O[C@@H](n2cnc3c(N)ncnc32)[C@H](O)[C@@H]1O` yielded a Kd in assay [1] of 8.23 µM.
`NC(=O)CCCNC(=O)OC[C@H]1O[C@@H](n2cnc3c(N)ncnc32)[C@H](O)[C@@H]1O`: in assay [1], binding was put at a Kd of 98.7 µM.
Compound `NC(=O)[C@@H](CCCN=C(N)N)NC(=O)[C@@H](CCCN=C(N)N)NC(=O)CCCCCNC(=O)[C@H]1O[C@@H](n2cnc3c(N)ncnc32)[C@H](O)[C@@H]1O` registered an IC50 in assay [3] of 2.6 µM.
For `NCCCC[C@@H](NC(=O)CCCCCNC(=O)[C@H]1O[C@@H](n2cnc3c(N)ncnc32)[C@H](O)[C@@H]1O)C(=O)NCCCCCC(=O)N[C@H](CCCN=C(N)N)C(=O)N[C@H](CCCN=C(N)N)C(=O)N[C@H](CCCN=C(N)N)C(=O)N[C@H](CCCN=C(N)N)C(N)=O`, the dissociation constant Kd in assay [2] was under 0.001 µM; in assay [1] it was 0.0005 µM. Besides, the IC50 in assay [3] was found to be 0.0134 µM; in assay [4], 0.0566 µM.
For the compound `NCCCC[C@@H](NC(=O)CCCCCNC(=O)[C@H]1O[C@@H](n2cnc3c(N)ncnc32)[C@H](O)[C@@H]1O)C(=O)NCCCC(=O)N[C@H](CCCN=C(N)N)C(=O)N[C@H](CCCN=C(N)N)C(N)=O`, the affinity in assay [1], expressed as Kd, was 0.0126 µM.
In assay [1], `N=C(N)NCCC[C@@H](NC(=O)[C@@H](CCCNC(=N)N)NC(=O)CCCCCCCNC(=O)[C@@H](CCCCN)NC(=O)CCCCCNC(=O)[C@H]1O[C@@H](n2cnc3c(N)ncnc32)[C@H](O)[C@@H]1O)C(N)=O` had a Kd of 0.0095 µM.
On to `NCCCC[C@@H](NC(=O)CCCCCNC(=O)[C@H]1O[C@@H](n2cnc3c(N)ncnc32)[C@H](O)[C@@H]1O)C(=O)NCCCCCC(=O)N[C@@H](CCCN=C(N)N)C(=O)N[C@@H](CCCN=C(N)N)C(N)=O`, for which, in assay [1], the Kd came out at 0.0087 µM.
With `NC(=O)CCCCCNC(=O)[C@H]1O[C@@H](n2cnc3c(N)ncnc32)[C@H](O)[C@@H]1O`, the dissociation constant Kd in assay [2] is 4.48 µM; in assay [1], 2.18 µM. Besides, the IC50 in assay [3] was 26 µM; in assay [4] it was over 1000 µM.

The term Kd denotes a measure of binding affinity in units of concentration. A high value points to a looser complex. The IC50 is the concentration that inhibits the measured activity by half.
